According to PMC8344021, “Discovery of Small Molecule Bak Activator for Lung Cancer Therapy” (Theranostics, 2021):

System: A549 cells
Assay: Apoptotic cell death assay (Annexin V/PI)
Assay type: cell-based, human
Source text: Supplemental Materials and Methods
Small molecule NSC14073 (BKA-073) was obtained from the Drug Synthesis and Chemistry Branch, Developmental Therapeutic Program, Division of Cancer Treatment and Diagnosis, National Cancer Institute (NCI, Bethesda, MD) (http://dtp.nci.nih.gov/RequestCompounds).
Venetoclax (ABT-199, 205807) was purchased from MedKoo Biosciences (Morrisville, NC).
Antibodies including PARP (sc-8007), Bax (sc-7480), Mcl-1 (sc-12756), cytochrome c (sc-13156) and actin (sc-47778) were purchased from Santa Cruz (Santa Cruz, CA). Bcl2 antibody (05-826) was obtained from Calbiochem (Darmstadt, Germany). Bcl-XL (ab32370), Bak (ab32371) and Bax (ab104156) antibodies were purchased from Abcam (Cambridge, MA).
Active caspase 3 (9579S) and Mcl-1 (94296S) antibodies were purchased from Cell Signaling Technology (Danvers, MA). Fluorescent Bak BH3 domain peptide (FAM-GQVGRQLAIIGDDINR) and purified Bcl-XL protein were purchased from NeoBioSciTM (Cambridge, MA). Bim BH3 peptide (AS-62278) was obtained from AnaSpec, Inc. (Fremont, CA). Purified recombinant human Bak protein (BAK1-26166TH) was purchased from Creative Biomart (Shirley, NY). Purified recombinant human Bax protein (H00000581-P01) was obtained from Novus Biologicals (Littleton, CO) and purified human Bcl-XL protein (SRP0187) was purchased from Sigma-Aldrich (St. Louis, MO). Purified human Bcl2 protein was obtained from ProteinX Lab (San Diego, CA). Purified recombinant human Mcl-1 protein (GWB-P0342D) was purchased from GenWay Biotech, Inc. (San Diego, CA). Purified recombinant human Bcl-w (824-BW-050) protein was obtained from R&D systems (Minneapolis, MN). Bis (maleimido) hexane (BMH) (22330) was purchased from Thermo Scien tific (Rockford, IL). JC -1 (ENZ-52304) was obtained from Enzo Life Sciences, Inc. (Farmingdale, NY). All other reagents used were obtained from commercial sources unless otherwise stated. […]
Apoptotic cell death assay
Apoptotic cells were detected using Annexin-V Apoptosis Detection Kit (556547, BD Biosciences, San Jose, CA) according to the manufacturer’s instructions. After treatment with BKA-073 or other agent(s) for 72h, cells were washed twice with cold 1x PBS and then resuspended in 1 x Binding Buffer at a concentration of 1 x 10^6 cells/ml. 100 μl of the solution […]
(1 x 10^5 cells) was transferred to a 5 ml culture tube, followed by the addition of 5 μl of FITC Annexin V and 5 μl propidium iodide (PI). The cells were gently vortexed and incubated for 15 min at RT (25°C) in the dark. 400 μl of 1x binding buffer was added to each tube. […]
mM DTT] in black 96-well microplates. The plate was mixed o n a shaker for 1 minute and incubated at room temperature for an additional 15 minutes. The FP values (in millipolarization units) were measured using a fluorescence microplate reader at 485/530 nm (Gemini XPS, Molecular Devices). Data analysis and inhibit ory constant (Ki) value was determined by GraphPad prism software as described.
Cloning, protein expression and purification of mouse B ak protein
The clone pMIH-mRuby2-mouse Bak (#111627) for generation of mouse Bak protein was obtained from Addgene (Watertown, MA). The mouse Bak cDNA was cloned into pET29b expression vector between BglII and XhoI sites as His tag fusions. The BL21 DE3 Escherichia coli containing plasmid was grown at 37°C in LB (Luria-Bertani) media. The protein expression was induced with IPTG (0.2 mM) at 18°C for 16 h when the density reached an OD600 of 0.6.
Bacteria were then harvested and resuspended in 30 ml buffer A (20 mM Tris, pH 8.0, 120 mM NaCl, 10% glycerol, and protease inhibitor cocktail) and lysed by sonication. The lysate was centrifuged at 14,000 rpm for 30 min. The resulting supernatant was incubated with HisPur Cobalt Resin (Thermo Scientific) at 4 °C for 2h. After washing wi th buffer A, His-tagged mouse Bak proteins was eluted with buffer B (20 mM Tris, pH 8.0, 120 mM NaCl, 300 mM imidazole, 10% glycerol with protease inhibitor). The elution peak of interest was checked by SDS -PAGE […]

Compound: COc1ccc2nc3ccccc3c(NCCNCC(C)O)c2c1 (centres unmarked) [BKA-073]
- induction of apoptotic cell death (0, 0.25, 0.5, 0.75, 1.0 µM, 72h): in a dose-dependent manner
- sensitivity (DBP and apoptosis) (A549 Bak-/- cells expressing A79E Bak, 1 µM): completely or partially restored sensitivity
- sensitivity (DBP and apoptosis) (A549 Bak-/- cells expressing D83E Bak, 1 µM): failed to restore sensitivity
- sensitivity (DBP and apoptosis) (A549 Bak-/- cells expressing I80E Bak, 1 µM): completely or partially restored sensitivity
- sensitivity (DBP and apoptosis) (A549 Bak-/- cells expressing N86E Bak, 1 µM): failed to restore sensitivity
- sensitivity (DBP and apoptotic cell death) (A549 Bak-/- cells expressing exogenous WT Bak, 1 µM): restored sensitivity
- sensitivity (DBP and apoptotic cell death) (A549 Bak-/- cells expressing ΔBH3 mutant Bak, 1 µM): failed to restore sensitivity
- sensitivity (DBP and apoptotic cell death) (A549 Bak-/- cells transfected with vector-only, 1 µM): resistant
- apoptotic cell death (Bak-/- A549 cells): ~ 20%
- sensitivity (DBP and apoptotic cell death) (Bak-/- A549 cells, 1μM, 16h or 72h): significant resistance
- sensitivity (DBP and apoptotic cell death) (Bax-/- A549 cells, 1μM, 16h or 72h): sensitive
- apoptotic cell death (DKO A549 cells): ~ 20%
- sensitivity (DBP and apoptotic cell death) (DKO A549 cells, 1μM, 16h or 72h): significant resistance
- sensitivity (DBP and apoptotic cell death) (parental A549 cells, 1μM, 16h or 72h): sensitive
